Experimental data reported in patent publication US12121530B2, “Composition and methods for treating articulating joint disorders with nucleoside reverse transcriptase inhibitors” (RHODE ISLAND HOSPITAL, priority 2018, dated 2024).
“Also recorded” adds a separate entry of the source.

Experiments:
[1] = system: mouse femur articular cartilage; assay: femur explant organ culture with 3TC or FTC, RT-qPCR of articular cartilage; format: cell-based; settings: 10 μM 3TC or 25 μM FTC, 48 hrs
From the text: Femurs were obtained from 21-day-old WT C57BL/6 mice. Femurs with intact articular surface and periosteum was sterilely dissected under microscope. Upon harvesting, femurs were rinsed with HBSS (Gibco®, Grand Island, N.Y. 14072 USA) and then submerged into DMEM (Gibco, Grand Island, N.Y. 14072 USA) medium supplemented with 10% fetal bovine serum (FBS, Gibco®, Grand Island, N.Y. 14072 USA) in 12-well culture dishes. The first-generation cytidine analogue/NRTI-3TC or newest-generation cytidine analogue/NRTI-FTC was added into the medium with desired concentrations. After a total of 48 hrs incubation at 37° C. in an atmosphere of 5% CO2, femurs were rinsed with HBSS and articular cartilage was peeled off using surgical scalpels under dissecting microscope for RNA extraction. Both miRNA and mRNA were extracted using miRNeasy Mini Kit (Qiagen®, Germantown, Md., USA) and reversely transcribed using […] (Qiagen®, Germantown, Md., USA) according to manufacturer's instruction. qPCR was performed using SYBR Green PCR master mix (Qiagen®, Germantown, Md., USA) on a Bio-Rad CFX96 real-time PCR detection system (Bio-Rad®, Hercules, Calif., USA). Amplification conditions are as follows: 95° C. for 10 min, 40 cycles of 95° C. for 10'', 55° C. for 30'', and 72° C. for 30''. 18S ribosomal or GAPDH RNA was used as an internal control gene to normalize the mRNAs level. The ubiquitously expressed snRNA U6 was used as an endogenous control for miRNAs level. […] The primers for miR-365 were purchased from Qiagen. Fold changes of mRNA and miRNAs were calculated by the 2^^(ΔΔCt) method and normalized to 18S/GAPDH or U6 snRNA, respectively.

[2] = system: mouse primary chondrocytes; assay: RT-qPCR gene expression in mouse primary chondrocytes treated with 3TC or FTC at various dosages; format: cell-based
Procedure: Rib cages were sterilely isolated from neonatal mice (within 7-day-old) of desired genotypes and rinsed with HBSS for five times. To remove unspecific tissues, rib cages were digested in Collagenase D (3 μg/mL, Roche, Cat. 11088882001, Mannheim, Germany) for 2-4 hrs at 37° C. and rinsed with HBSS (Gibco®, Grand Island, N.Y. 14072 USA) for five times to remove detached unspecific tissues. To detach chondrocytes from rib cages, the samples underwent secondary digestion in Collagenase D (3 μg/mL) for at least 4 hrs at 37° C. with constant agitation (200 rpm). Detached chondrocytes were pelleted to remove excessive Collagenase D and resuspended in complete medium of DMEM (Gibco®, Grand Island, N.Y. 14072 USA) which contains 10% FBS, 100 U/mL penicillin and 100 μg/mL streptomycin (Gibco®, Grand Island, N.Y. 14072 USA). Growth plate PCs were grown at 37° C. in an atmosphere of 5% CO2. The media was changed on the following day to remove remaining Collagenase D and every 3 days thereafter. Similarly, articular cartilages were sterilely isolated under dissection microscope from neonatal mice (within 7-day-old) of desired genotypes and rinsed with HBSS for five times. In brief, the skins of hindlimbs were removed and transections on Ilia and muscles around hip joints were made to detach hindlimbs from torsi, then transferred to a petri dish. Under a dissection microscope placed in a cell culture hood, soft tissues were cleared while knee and hip joints were exposed. Femur heads could be easily peeled off whilst a fine cut of epiphyses based on vascularization were made to isolate articular cartilage from secondary ossification center. Beyond that, isolated tissues were minced into finer fragments and then put together before undergoing HBSS rinse and subsequent Collagenase D digestion. To remove unspecific tissues, articular cartilages were minced and digested in Collagenase D (3 μg/mL) for 2 hrs at 37° C. and rinsed with HBSS for five times to remove detached unspecific tissues. To detach chondrocytes from cartilage matrix, the samples underwent secondary digestion in Collagenase D (3 μg/mL) for at least 4 hrs at 37° C. with constant agitation (200 rpm). Detached chondrocytes were pelleted to remove excessive Collagenase D and resuspended in complete medium of DMEM which contains 10% FBS, 100 U/mL penicillin and 100 μg/mL streptomycin. Articular PCs were grown at 37° C. in an atmosphere of 5% CO2. The media was changed on the following day to remove remaining Collagenase D and every 3 days thereafter. Both miRNA and mRNA were extracted using miRNeasy Mini Kit (Qiagen®, Germantown, Md., USA) and reversely transcribed using […] (Qiagen®, Germantown, Md., USA) according to manufacturer's instruction. qPCR was performed using SYBR Green PCR master mix (Qiagen®, Germantown, Md., USA) on a Bio-Rad CFX96 real-time PCR detection system (Bio-Rad®, Hercules, Calif., USA). Amplification conditions are as follows: 95° C. for 10 min, 40 cycles of 95° C. for 10'', 55° C. for 30'', and 72° C. for 30''. 18S ribosomal or GAPDH RNA was used as an internal control gene to normalize the mRNAs level. The ubiquitously expressed snRNA U6 was used as an endogenous control for miRNAs level. […] The primers for miR-365 were purchased from Qiagen. Fold changes of mRNA and miRNAs were calculated by the 2^^(ΔΔCt) method and normalized to 18S/GAPDH or U6 snRNA, respectively.

[3] = system: HIV patients; assay: summary data of NRTI on OA in HIV patients; format: in vivo, human; settings: HIV patients, older than 50, dosage dependent, both male and female
From the text: Medical provider diagnoses of ICD-9-CM 715 [osteoarthrosis and allied disorders] include the following definitions: 1) strict=ICD-9-CM 715; 2) expanded=ICD-9-CM 715, 716 [other and unspecified arthropathies], OR 719 [other and unspecified disorders of joint]); and 3) probable=strict OR expanded+respondent-reported prior diagnosis of OA or other arthritis excluding rheumatoid arthritis (RA).

[4] = mouse primary chondrocytes, RNA level, various dosages
[5] = mouse chondrocytes, at lower than 100 μM concentrations

| Compound | Acan expression [1] | Adamts5 expression [1] | Col2 (Col2a1) expression [1] | Col10 (Col10a1) expression [1] | Ifn-α mRNA level [1] | Ihh mRNA level [1] | Line-1 (L1) levels [1] | Mmp3 mRNA level [1] | Mmp13 expression [1] | Acan expression [2, 4] | Adamts5 expression [2, 4] | Col2 (Col2a1) expression [2, 4] | Col10 (Col10a1) expression [2, 4] | Ifn-α (Inf-α) expression [2, 4] | Line-1 expression [2, 4] | Mmp13 expression [2, 4] | strict OA (ICD-9-CM 715) [3] | further results |
| --- | --- | --- | --- | --- | --- | --- | --- | --- | --- | --- | --- | --- | --- | --- | --- | --- | --- | --- |
| Nc1ccn([C@@H]2CS[C@H](CO)O2)c(=O)n1 [3TC, lamivudine] | induces; also recorded: increased | inhibiting; also recorded: significantly inhibited | induces; also recorded: increased | inhibiting; also recorded: significantly inhibited | significantly inhibited | significantly inhibited | inhibiting; also recorded: significantly inhibited | significantly inhibited | inhibiting; also recorded: significantly inhibited | stimulated | suppresses; also recorded: inhibited | promotes; also recorded: stimulated | suppresses; also recorded: inhibited | suppresses | suppresses; also recorded: inhibited | inhibited | inhibiting |  |
| Nc1nc(=O)n([C@@H]2CS[C@H](CO)O2)cc1F [FTC, 2′,3′-dideoxy-5-fluoro-3′-thiacytidine] | induces; also recorded: increased | inhibits; also recorded: significantly inhibited | increased | significantly inhibited | significantly inhibited | significantly inhibited | significantly inhibited | significantly inhibited | inhibits; also recorded: significantly inhibited | promotes | induces | promotes | induces | suppresses; also recorded: significantly inhibited | suppresses; also recorded: significantly inhibited | induces | inhibiting | Acan levels [2, 5]: increased; Col2a1 levels [2, 5]: increased; Mmp3 expression [2, 4]: induces; Nlrp3 expression [2, 4]: suppresses; also recorded: significantly inhibited; P2rx7 expression [2, 4]: suppresses; also recorded: significantly inhibited |
